Series [1] in a line: Reversal fold, ratio of PTX IC50 to PTX IC50 in presence of test compound for reversal of multi-drug resistance in human SW620/AD300 cells incubated for 72 hrs by CCK-8 assay (reference value: 1.0). The format is functional. For orientation: Formazan colour is commonly taken as a measure of viable cells.
The test system of the next series is SW620/AD300. Description: Cytotoxicity against human SW620/AD300 cells assessed as reduction in cell viability at 20 uM incubated for 72 hrs by CCK-8 assay relative to control. The format is functional.
Series [2] in a line: Toxicity in male BALB/c nude mouse xenografted with ABCB1 overexpressing human SW620/AD300 cells assessed as cell necrosis in kidney measured after 14 days in presence of paclitaxel by H and E staining based analysis. Type of series: tissue-based. To be noted: 336 h, time 14 day.
Series [3] can be described thus: Toxicity in male BALB/c nude mouse xenografted with ABCB1 overexpressing human SW620/AD300 cells assessed as cell necrosis in liver measured after 14 days in presence of paclitaxel by H and E staining based analysis. To be noted: 336 h, time 14 day. (In general: Xenograft models place foreign cells or tissue in a host animal.)
Series [4] deals with T1, ATP-dependent translocase ABCB1 (Homo sapiens, UniProt P08183). Description: Binding affinity to ABCB1 (unknown origin) in human SW620/AD300 cells assessed as thermal stabilization at 20 uM at 40 to 65 degreeC incubated for 30 mins by CETSA. The format is cell-based. To be noted: sw620/ad300, 0.5 h.
Series [5] in a line: Toxicity in male BALB/c nude mouse xenografted with ABCB1 overexpressing human SW620/AD300 cells assessed as cell necrosis in kidney at 50 mg/kg administered every 3 days and measured after 14 days by H and E staining based analysis. Type of series: organism-based. To be noted: in vivo, 336 h, time 14 day.
In series [6] the target is T1, ATP-dependent translocase ABCB1. Description: Inhibition of ABCB1 in human SW620/AD300 cells assessed as accumulation of Rhodamine-123 by measuring fluorescence intensity incubated for 24 hrs by flow cytometric analysis. Type of series: cell-based. To be noted: sw620/ad300, 24 h, at 5 to 20 µM, dose 5-20 µM. Background: In flow cytometry, cells or beads pass a laser one at a time.

Series [7] in a line: Toxicity in male BALB/c nude mouse xenografted with ABCB1 overexpressing human SW620/AD300 cells assessed as body weight loss measured after 14 days in presence of paclitaxel. To be noted: 336 h, time 14 day.
Series [8] can be described thus: Toxicity in male BALB/c nude mouse xenografted with ABCB1 overexpressing human SW620/AD300 cells assessed as cell necrosis in liver at 50 mg/kg administered every 3 days and measured after 14 days by H and E staining based analysis. The format is organism-based. To be noted: in vivo, 336 h, time 14 day.
The nature of series [9]: Toxicity in male BALB/c nude mouse xenografted with ABCB1 overexpressing human SW620/AD300 cells assessed as cell necrosis in spleen measured after 14 days in presence of paclitaxel by H and E staining based analysis. To be noted: 336 h, time 14 day.
The nature of series [10]: Toxicity in male BALB/c nude mouse xenografted with ABCB1 overexpressing human SW620/AD300 cells assessed as body weight loss at 50 mg/kg administered every 3 days and measured after 14 days. The format is organism-based. To be noted: in vivo, 336 h, time 14 day.
The nature of series [11]: Toxicity in male BALB/c nude mouse xenografted with ABCB1 overexpressing human SW620/AD300 cells assessed as cell necrosis in spleen at 50 mg/kg administered every 3 days and measured after 14 days by H and E staining based analysis. The format is organism-based. To be noted: in vivo, 336 h, time 14 day.

SMILES strings stand for the structures.

Here are results for 48 compounds from ChEMBL document CHEMBL6114996, “Design, synthesis, and biological evaluation of β-carboline derivatives as ABCB1 inhibitors for reversing multidrug resistance” (Eur J Med Chem, 2025).

T1 sequence (P08183 whole entry): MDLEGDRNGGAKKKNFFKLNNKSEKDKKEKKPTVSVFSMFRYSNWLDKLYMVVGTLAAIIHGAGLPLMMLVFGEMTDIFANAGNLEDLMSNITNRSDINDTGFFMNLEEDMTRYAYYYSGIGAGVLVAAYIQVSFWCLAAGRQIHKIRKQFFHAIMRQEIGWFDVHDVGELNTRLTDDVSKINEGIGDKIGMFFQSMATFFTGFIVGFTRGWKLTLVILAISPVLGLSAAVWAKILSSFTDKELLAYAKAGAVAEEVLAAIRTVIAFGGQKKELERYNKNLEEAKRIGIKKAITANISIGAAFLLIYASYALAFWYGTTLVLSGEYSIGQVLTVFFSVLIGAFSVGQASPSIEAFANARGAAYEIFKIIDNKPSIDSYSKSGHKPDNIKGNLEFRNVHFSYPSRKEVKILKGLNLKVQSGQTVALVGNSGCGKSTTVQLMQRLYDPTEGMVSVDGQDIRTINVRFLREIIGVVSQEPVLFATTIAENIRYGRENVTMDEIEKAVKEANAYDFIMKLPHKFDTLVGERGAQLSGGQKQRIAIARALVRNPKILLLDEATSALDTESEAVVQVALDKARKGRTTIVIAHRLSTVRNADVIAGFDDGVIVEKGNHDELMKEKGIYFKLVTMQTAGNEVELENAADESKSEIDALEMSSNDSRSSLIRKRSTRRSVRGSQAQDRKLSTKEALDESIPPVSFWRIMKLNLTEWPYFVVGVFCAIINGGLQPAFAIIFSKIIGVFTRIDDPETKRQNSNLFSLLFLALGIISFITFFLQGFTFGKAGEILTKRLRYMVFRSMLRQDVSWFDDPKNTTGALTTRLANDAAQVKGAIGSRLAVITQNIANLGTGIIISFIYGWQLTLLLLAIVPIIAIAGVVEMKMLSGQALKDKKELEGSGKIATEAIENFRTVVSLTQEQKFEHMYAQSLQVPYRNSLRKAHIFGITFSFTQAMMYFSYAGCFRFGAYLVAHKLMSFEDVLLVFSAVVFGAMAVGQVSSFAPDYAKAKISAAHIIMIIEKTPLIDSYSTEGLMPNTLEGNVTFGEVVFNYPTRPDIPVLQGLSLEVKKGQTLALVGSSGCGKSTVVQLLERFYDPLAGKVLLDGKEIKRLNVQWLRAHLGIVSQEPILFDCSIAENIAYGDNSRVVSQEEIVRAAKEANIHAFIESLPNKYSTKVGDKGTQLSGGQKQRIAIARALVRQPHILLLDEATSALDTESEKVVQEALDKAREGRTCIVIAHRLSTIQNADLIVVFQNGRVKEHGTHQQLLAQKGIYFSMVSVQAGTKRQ

As for `Fc1ccc(-c2nccc3c2[nH]c2ccccc23)cc1`, in series [1], the “Ratio IC50” value is listed as 5.3. Moreover, the Activity in the series with SW620/AD300 is recorded as >80%.

As for `CCc1nc(C(=O)OC)cc2c1[nH]c1ccccc12`, the “Ratio IC50” value in series [1] worked out at 1.3. The Activity with SW620/AD300 is on record as >80%. For `Oc1ccc(-c2nccc3c2[nH]c2ccccc23)cc1`, in that order: 1.6 and >80%. For `CC(C)Cc1nccc2c1[nH]c1ccccc12`, in that order: 3.2 and >80%.

Consider `N#Cc1cccc(-c2nccc3c2[nH]c2ccccc23)c1`, for which the “Ratio IC50” value in [1] was determined as 2.2. For the same compound, the Activity in the series with SW620/AD300 is recorded as >80%. For the compound `N#Cc1ccc(-c2nccc3c2[nH]c2ccccc23)cc1`, the “Ratio IC50” value in series [1] is 3.5. Besides, the Activity with SW620/AD300 is >80%.

Regarding `Clc1cc(Cl)cc(-c2nccc3c2[nH]c2ccccc23)c1`, in [1], the “Ratio IC50” value is reported as 7.3. In addition, the Activity with SW620/AD300 is >80%.

As for `FC(F)(F)c1ccc(-c2nccc3c2[nH]c2ccccc23)cc1`, in series [1], the “Ratio IC50” value was found to be 3.2. Moreover, in the series with SW620/AD300, the Activity is >80%.

Consider `COc1ccc(-c2nccc3c2[nH]c2ccccc23)cc1`, for which the “Ratio IC50” value in series [1] is 37.8. Also, the Activity in the series with SW620/AD300 is on record as >80%.

`CCc1ccc(-c2nccc3c2[nH]c2ccccc23)cc1`: the Activity in the series on SW620/AD300 is on record as <80%. For `COc1ccc(-c2nccc3c4ccccc4n(C)c23)cc1`, the Activity result was “Non-toxic” in series [2]; “Non-toxic” in [3]; “Active” in [4]; “Non-toxic” in series [5]; “Non-toxic” in series [7]; “Non-toxic” in [8]. The Activity entry in series [9], in series [10] and in series [11] was “Non-toxic” in each case. Further, the “inhibition (INH)” value in [6] was “Dose-dependent-effect”.

With `CCc1ccc(-c2nccc3c4ccccc4n(CC)c23)cc1`, the Activity with SW620/AD300 was <80%. For the compound `Cc1nc(-c2ccc(-c3nccc4c3[nH]c3ccccc34)cc2)no1`, in series [1], the “Ratio IC50” value was found to be 27.5. Also, the Activity in the series on SW620/AD300 was >80%. In the case of `COc1ccc2[nH]c3c(CC(C)C)nccc3c2c1`, in the series on SW620/AD300, the Activity is reported as <80%. The same measure, in the same setting: the value for `Cc1ccc(-c2nccc3c2[nH]c2ccccc23)cc1` was <80%.

In the case of `CC(C)Cc1nccc2c3ccccc3n(Cc3ccccc3)c12`, the “Ratio IC50” value in series [1] came to 113.6. For the same compound, in the series on SW620/AD300, the Activity is listed as >80%. For `CCn1c2ccccc2c2ccnc(-c3ccc(C(F)(F)F)cc3)c21`, in that order: 14.8 and >80%.

Take `CC(C)Cc1nc(C(=O)OCc2ccccc2)cc2c1[nH]c1ccccc12`: the “Ratio IC50” value in series [1] stood at 4. Further, the Activity in the series on SW620/AD300 is given as >80%. `CC(C)Cc1nccc2c3ccccc3n(CC(C)C)c12`: the Activity in the series with SW620/AD300 is listed as <80%. On to `CCOC(=O)c1cc2c([nH]c3ccccc32)c(CC(C)C)n1`, for which the “Ratio IC50” value in [1] turned out to be 47.4. For the same compound, in the series with SW620/AD300, the Activity is >80%.

For the compound `Cc1nc(-c2cccc(-c3nccc4c3[nH]c3ccccc34)c2)no1`, the “Ratio IC50” value in series [1] worked out at 3.3. For the same compound, the Activity with SW620/AD300 is >80%. For the compound `COc1ccc(-c2nccc3c4ccccc4n(Cc4ccccc4C)c23)cc1`, the Activity with SW620/AD300 is recorded as <80%. Same read-out and setting: the value for `Cc1cccc2c1[nH]c1c(CC(C)C)nccc12` was <80%; that for `COc1ccc(-c2nccc3c2[nH]c2c(C)cccc23)cc1` was <80%. The same measure, in the same setting: the value for `CCc1ccc(-c2nccc3c4ccccc4n(Cc4ccc(C(C)C)cc4)c23)cc1` was <80%. As for `CCC(CC)c1nccc2c1[nH]c1ccccc12`, the “Ratio IC50” value in series [1] amounted to 31. The Activity in the series with SW620/AD300 is on record as >80%. On to `COc1ccc(-c2nccc3c4ccccc4n(Cc4ccccc4)c23)cc1`, for which, in the series on SW620/AD300, the Activity is <80%. With `Cn1c2ccccc2c2ccnc(-c3ccc(C(F)(F)F)cc3)c21`, the “Ratio IC50” value in [1] was 25.9. Besides, the Activity with SW620/AD300 is >80%.

As to `CCc1ccc(-c2nc(C(=O)OCc3ccccc3)cc3c2[nH]c2ccccc23)cc1`, the Activity in the series on SW620/AD300 is on record as >80%. The same measure, in the same setting: the value for `CCc1ccc(-c2nc(C(=O)OC)cc3c2[nH]c2ccccc23)cc1` was >80%; that for `COc1ccc(-c2nccc3c2[nH]c2ccc(OC)cc23)cc1` was <80%; that for `CCC(CC)c1nccc2c3ccccc3n(CC)c12` was <80%.

As for `COc1ccc(-c2nccc3c2[nH]c2cc(OC)ccc23)cc1`, the Activity in the series with SW620/AD300 is recorded as 80%. On to `COc1ccc(-c2nccc3c4ccccc4n(Cc4ccc(C)cc4)c23)cc1`, for which the “Ratio IC50” value in series [1] came to 25.6. For the same compound, the Activity in the series with SW620/AD300 is on record as >80%. Regarding `CCC(CC)c1nccc2c1[nH]c1ccc(OC)cc12`, the Activity with SW620/AD300 is <80%. As to `COc1ccc(-c2nccc3c4ccccc4n(Cc4ccc(C(C)C)cc4)c23)cc1`, the “Ratio IC50” value in series [1] is given as 26.3. Moreover, the Activity in the series on SW620/AD300 is given as >80%.

In the case of `CCc1ccc(-c2nccc3c4ccccc4n(C)c23)cc1`, the Activity with SW620/AD300 is listed as <80%.

As for `CC(C)c1ccc(-c2nccc3c2[nH]c2ccccc23)cc1`, the Activity in the series on SW620/AD300 is recorded as <80%. Turning to `CC(C)Cc1nccc2c3ccccc3n(C)c12`, in the series with SW620/AD300, the Activity is reported as <80%.

For the compound `CCc1ccc(-c2nccc3c4ccccc4n(Cc4ccccc4C)c23)cc1`, the Activity in the series with SW620/AD300 is <80%.

Turning to `CCn1c2ccccc2c2ccnc(CC(C)C)c21`, the Activity with SW620/AD300 is given as <80%. For the compound `CCn1c2ccccc2c2ccnc(-c3ccc(OC)cc3)c21`, the “Ratio IC50” value in series [1] is 12.3. Moreover, in the series on SW620/AD300, the Activity is recorded as >80%. For `C#CCn1c2ccccc2c2ccnc(CC(C)C)c21`, in that order: 15.9 and >80%.

`COC(=O)c1cc2c([nH]c3ccccc32)c(CC(C)C)n1`: in series [1], the “Ratio IC50” value was determined as 2.7. In addition, the Activity with SW620/AD300 was >80%. In the same order, the values of `CCc1ccc(-c2nccc3c4ccccc4n(Cc4ccc(C)cc4)c23)cc1` are 26.6 and >80%.

In the case of `COc1ccc2c(c1)[nH]c1c(CC(C)C)nccc12`, the Activity in the series with SW620/AD300 is recorded as <80%. On to `COc1cc(OC)cc(-c2nccc3c2[nH]c2ccccc23)c1`, for which the Activity in the series on SW620/AD300 is listed as <80%. The same measure, in the same setting: the value for `CCC(CC)c1nccc2c3ccccc3n(C)c12` was <80%.
